Data reported in ChEMBL document CHEMBL1201862, “PubChem BioAssay data set” (2004).
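In this assay, cells in 96-well plates receive the compound at five concentrations for 48 hours. Endpoints are linearly interpolated between the surrounding concentrations. At the GI50, growth is halved.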 Active and inactive are the calls of the source. Rule as the data show it: active = GI50 up to about 1.1 µM and inactive = higher.

Columns and labels:
Assay in all cases: NCI anticancer screen, dose series, 48 h
[1] = test system: CCRF-CEM
[2] = test system: OVCAR-3
[3] = test system: COLO 205
[4] = test system: SK-MEL-5
[5] = test system: K562
[6] = test system: UO-31
[7] = test system: DU-145
[8] = test system: SN12C
[9] = test system: SR
[10] = test system: NCI-H522
[11] = test system: RXF 393
[12] = test system: RPMI-8226
[13] = test system: A549
[14] = test system: UACC-62
[15] = test system: ACHN
[16] = test system: HCC 2998
[17] = test system: LOX IMVI
[18] = test system: IGROV-1
[19] = test system: OVCAR-5
[20] = test system: HCT-15

SMILES | GI50 [1] | GI50 [2] | GI50 [3] | GI50 [4] | GI50 [5] | GI50 [6] | GI50 [7] | GI50 [8] | GI50 [9] | GI50 [10] | GI50 [11] | GI50 [12] | GI50 [13] | GI50 [14] | GI50 [15] | GI50 [16] | GI50 [17] | GI50 [18] | GI50 [19] | GI50 [20] [nM]
C/C=C/[P+](c1ccccc1)(c1ccccc1)c1ccccc1 | 474 nM (active) | 540 nM (active) | 101 nM (active) | 378 nM (active) | 64.9 nM (active) | 26700 nM (inactive) | 1150 nM (inactive) | 1790 nM (inactive) | 381 nM (active) | 836 nM (active) | 6140 nM (inactive) | 41.3 nM (active) | 548 nM (active) | 1710 nM (inactive) | 4560 nM (inactive) | 240 nM (active) | 1340 nM (inactive) | 2110 nM (inactive) | 4240 nM (inactive) | 25500
C[C@@H]1C[C@H](O)[C@]2(O)O[C@@H]3C[C@@]4(C=O)[C@@H](CC[C@@H]5[C@@H]4CC[C@]4(C)[C@@H](C6=CC(=O)OC6)CC[C@]54O)C[C@H]3O[C@@H]2O1 [CALOTROPIN] | 17.5 nM (active) | 18.2 nM (active) | 72.6 nM (active) | 27.8 nM (active) | 36.5 nM (active) | 58.3 nM (active) | 13.4 nM (active) | 20.2 nM (active) | 18.1 nM (active) | 16.2 nM (active) | 17.6 nM (active) | 24.6 nM (active) | 14 nM (active) | 71.8 nM (active) | 18.8 nM (active) | 59.3 nM (active) | 23.1 nM (active) | 20.9 nM (active) | 126 nM (active) | 32.7
